Laboratory results taken from paper PMC3392537 (Neuropharmacology, 2012).

How the values were obtained:
[1] = molecular target: α3(2)β4(2)α5 (β4–6–α3 concatamer + α5) (Homo sapiens, UniProt P30926+P32297); assay: two-electrode voltage clamp, Xenopus oocytes; format: cell-based
[2] = molecular target: rat α3β4 (Rattus norvegicus, UniProt P04757+P12392); assay: two-electrode voltage clamp, Xenopus oocytes; format: cell-based
Chain of rat α3β4 (P04757 26-499): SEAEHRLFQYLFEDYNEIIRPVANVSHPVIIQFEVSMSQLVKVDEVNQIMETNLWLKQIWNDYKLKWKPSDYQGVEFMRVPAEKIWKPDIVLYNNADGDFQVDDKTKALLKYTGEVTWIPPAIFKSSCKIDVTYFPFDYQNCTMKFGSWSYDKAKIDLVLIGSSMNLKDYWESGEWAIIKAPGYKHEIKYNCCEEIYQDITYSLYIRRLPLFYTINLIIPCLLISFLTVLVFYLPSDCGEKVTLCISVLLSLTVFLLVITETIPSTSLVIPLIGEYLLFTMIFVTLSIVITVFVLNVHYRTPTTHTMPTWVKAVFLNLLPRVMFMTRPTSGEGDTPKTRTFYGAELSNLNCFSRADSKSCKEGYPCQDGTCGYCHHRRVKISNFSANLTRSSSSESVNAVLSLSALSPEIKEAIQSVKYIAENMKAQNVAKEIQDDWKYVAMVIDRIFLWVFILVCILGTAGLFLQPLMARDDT
Chain of rat α3β4 (P12392 21-495): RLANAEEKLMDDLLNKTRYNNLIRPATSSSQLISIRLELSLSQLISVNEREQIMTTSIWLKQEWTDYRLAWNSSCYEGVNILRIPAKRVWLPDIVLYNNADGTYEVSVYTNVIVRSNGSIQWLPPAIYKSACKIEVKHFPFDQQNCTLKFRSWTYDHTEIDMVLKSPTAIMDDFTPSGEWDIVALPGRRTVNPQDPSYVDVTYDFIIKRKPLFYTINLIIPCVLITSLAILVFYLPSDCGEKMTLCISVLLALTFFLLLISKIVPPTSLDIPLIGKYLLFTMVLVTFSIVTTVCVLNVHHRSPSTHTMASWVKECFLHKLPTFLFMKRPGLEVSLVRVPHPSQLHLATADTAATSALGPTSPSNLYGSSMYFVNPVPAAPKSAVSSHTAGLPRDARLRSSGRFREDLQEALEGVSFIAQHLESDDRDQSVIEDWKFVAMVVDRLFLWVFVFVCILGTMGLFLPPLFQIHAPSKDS

Chain of α3(2)β4(2)α5 (β4–6–α3 concatamer + α5) (P32297 32-505): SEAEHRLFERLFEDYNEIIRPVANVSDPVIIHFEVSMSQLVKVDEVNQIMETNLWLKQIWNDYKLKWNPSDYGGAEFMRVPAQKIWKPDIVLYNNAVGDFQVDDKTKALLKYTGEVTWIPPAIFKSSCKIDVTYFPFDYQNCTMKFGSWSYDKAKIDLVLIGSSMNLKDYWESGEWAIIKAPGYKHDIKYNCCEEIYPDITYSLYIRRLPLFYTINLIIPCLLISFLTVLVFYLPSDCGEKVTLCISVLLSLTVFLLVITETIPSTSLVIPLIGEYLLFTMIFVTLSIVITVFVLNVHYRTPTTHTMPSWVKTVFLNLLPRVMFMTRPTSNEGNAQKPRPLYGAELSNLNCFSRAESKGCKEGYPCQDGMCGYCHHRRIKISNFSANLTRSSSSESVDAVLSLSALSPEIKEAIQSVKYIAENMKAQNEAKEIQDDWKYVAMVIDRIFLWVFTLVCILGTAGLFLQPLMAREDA
Chain of α3(2)β4(2)α5 (β4–6–α3 concatamer + α5) (P30926 22-498): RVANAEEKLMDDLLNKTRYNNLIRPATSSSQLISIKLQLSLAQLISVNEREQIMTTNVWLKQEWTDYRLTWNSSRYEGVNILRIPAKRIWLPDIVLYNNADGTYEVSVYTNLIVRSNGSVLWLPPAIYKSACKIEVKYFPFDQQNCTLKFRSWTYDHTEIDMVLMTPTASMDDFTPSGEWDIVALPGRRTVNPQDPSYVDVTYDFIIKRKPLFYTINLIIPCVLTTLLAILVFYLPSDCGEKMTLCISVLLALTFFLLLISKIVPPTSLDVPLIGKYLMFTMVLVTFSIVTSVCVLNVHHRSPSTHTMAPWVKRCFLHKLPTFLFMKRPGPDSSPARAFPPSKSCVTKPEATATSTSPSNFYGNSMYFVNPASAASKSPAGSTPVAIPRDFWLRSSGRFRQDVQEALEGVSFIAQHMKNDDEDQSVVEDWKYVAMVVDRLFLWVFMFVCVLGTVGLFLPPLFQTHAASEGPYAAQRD
Chain of α3(2)β4(2)α5 (β4–6–α3 concatamer + α5) (P30532 23-468 partner): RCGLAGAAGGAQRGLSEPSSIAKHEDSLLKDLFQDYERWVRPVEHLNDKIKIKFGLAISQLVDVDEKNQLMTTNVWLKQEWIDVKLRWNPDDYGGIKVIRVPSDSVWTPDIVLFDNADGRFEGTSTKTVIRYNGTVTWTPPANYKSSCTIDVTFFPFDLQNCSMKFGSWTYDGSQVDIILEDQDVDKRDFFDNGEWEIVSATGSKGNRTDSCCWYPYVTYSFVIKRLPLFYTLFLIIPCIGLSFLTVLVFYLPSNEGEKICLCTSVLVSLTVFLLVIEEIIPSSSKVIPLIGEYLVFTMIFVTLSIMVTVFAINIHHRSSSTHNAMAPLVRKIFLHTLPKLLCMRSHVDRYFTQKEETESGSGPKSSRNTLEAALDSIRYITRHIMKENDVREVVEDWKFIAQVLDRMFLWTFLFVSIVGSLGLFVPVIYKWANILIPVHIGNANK

Row | IC50 [1] | Structure (SMILES) | EC50 [2]
1 | 9.17 ± 1.08 µM | COc1ccc(C=C2CCCN=C2c2cccnc2)c(OC)c1 [GTS-21, 3-(2,4dimethoxybenzylidene)anabaseine] | 
2 |  | O=c1cccc2n1C[C@@H]1CNC[C@H]2C1 [cytisine] | 520 ± 50 µM
3 |  | c1cnc2cc3c(cc2n1)C1CNCC3C1 [varenicline] | 28 ± 3.2 µM
